Source: patent publication US9981940B2, “Aryl sulfide derivatives and aryl sulfoxide derivatives as acaricides and insecticides” (BAYER CROPSCIENCE AKTIENGESELLSCHAFT, priority 2013, dated 2018)

Legend:
[1] = log P by HPLC (OECD Guideline 117), method [b] neutral range; type: physicochemical; settings: HPLC; for logP[b]: method [b] neutral range; for chromatographic logP: reversed-phase C18 HPLC column
Description: (§1) The log P values were determined analogously to OECD Guideline 117 (EC Directive 92/69/EEC) by HPLC (high-performance liquid chromatography) using reversed-phase columns (C 18), by the following methods:
[b] The LC-MS determination in the neutral range is effected at pH 7.8 with 0.001 molar aqueous ammonium hydrogencarbonate solution and acetonitrile as eluents; linear gradient from 10% acetonitrile to 95% acetonitrile.

Tetranychus urticae = Tetranychus urticae spray test, OP-resistant (TETRUR); type: in vivo; settings: application rate of 500 g/ha, after 6 days; for pest or weed control at 500 g/ha: Tetranychus urticae, 144 h, read-out: efficacy
Method in brief: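 Mortality as % efficacy (0% = no mites killed) read 6 days after spraying. Formulation: active ingredient in acetone/dimethylformamide plus emulsifier, diluted with emulsifier-containing water, applied to Phaseolus vulgaris leaf discs carrying every life stage of OP-resistant spider mites.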

[2] = log P by HPLC (OECD Guideline 117), method [a] acidic range; type: physicochemical; settings: for logP[a]: method [a] acidic range; for chromatographic logP: reversed-phase C18 HPLC column
Description: as §1
[a] The LC-MS determination in the acidic range is effected at pH 2.7 with 0.1% aqueous formic acid and acetonitrile (contains 0.1% formic acid) as eluents; linear gradient from 10% acetonitrile to 95% acetonitrile.

[3] = pH 2.7, HPLC method [a], acidic range, read-out: logP[a]
[4] = pH 2.7, HPLC, acidic range, pH 2.7, read-out: log P[a]

## CCCOc1nn(-c2cc([S+]([O-])CC(F)(F)F)c(C)cc2F)c(=O)n1C (centres unmarked) [Example 132]
[1]
  logP[b]: 2.47
Tetranychus urticae
  efficacy: 100%
[2]; HPLC
  logP[a]: 2.52

## C=CCOc1nn(-c2cc([S+]([O-])CC(F)(F)F)c(C)cc2F)c(=O)n1C1CC1 (centres unmarked) [Example 391]
[1]
  logP[b]: 2.65
Tetranychus urticae
  efficacy: 100%
[2]; HPLC
  logP[a]: 2.68

## C=CCn1c(SCCC)nn(-c2cc([S+]([O-])CC(F)(F)F)c(C)cc2F)c1=O (centres unmarked) [Example 430]
[1]
  logP[b]: 3.33
Tetranychus urticae
  efficacy: 90%
[2]; HPLC
  logP[a]: 3.18

## COc1nn(-c2cc([S+]([O-])CC(F)(F)F)c(C)cc2F)c(=O)n1CC1CC1 (centres unmarked) [Example 412]
[1]
  logP[b]: 2.52
Tetranychus urticae
  efficacy: 100%
[2]; HPLC
  logP[a]: 2.54

## CCOc1nn(-c2cc(SCC(F)(F)F)c(C)cc2F)c(=O)n1C1CC1 [Example 120]
[1]
  logP[b]: 3.44
Tetranychus urticae
  efficacy: 100%
[2]; HPLC
  logP[a]: 3.58

## COc1nn(-c2cc([S+]([O-])CC(F)(F)F)c(C)cc2F)c(=O)n1C1CC1 (single isomer, unassigned) [Example 380]
[1]
  logP[b]: 2.09
Tetranychus urticae
  efficacy: 100%
[2]; HPLC
  logP[a]: 2.14

## Cc1nn(-c2cc([S+]([O-])CC(F)(F)F)c(C)cc2F)c(=O)o1 (centres unmarked) [Example 451, 3-{2-Fluoro-4-methyl-5-[(2,2,2-trifluoroethyl)sulphinyl]phenyl}-5-methyl-1,3,4-oxadiazol-2(3H)-one]
[1]; neutral range, pH 7.8
  chromatographic logP: 2.02
Tetranychus urticae
  pest or weed control at 500 g/ha: 90%
[2]; [3]
  chromatographic logP: 1.99
[2]; [4]
  chromatographic logP: 1.99

## COc1nn(-c2cc([S+]([O-])CC(F)(F)F)c(Cl)cc2Cl)c(=O)n1C (centres unmarked) [Example 97]
[1]
  logP[b]: 2.24
Tetranychus urticae
  efficacy: 90%
[2]; HPLC
  logP[a]: 2.26

## Cc1ccc(-n2nc(OCc3ccccc3)n(C)c2=O)cc1[S+]([O-])CC(F)(F)F (centres unmarked) [Example 178]
[1]
  logP[b]: 3.18
Tetranychus urticae
  efficacy: 90%
[2]; HPLC
  logP[a]: 3.23

## C=C(C)CCOc1nn(-c2cc(SCC(F)(F)F)c(C)cc2F)c(=O)n1C1CC1 [Example 136]
[1]
  logP[b]: 4.33
Tetranychus urticae
  efficacy: 90%
[2]; HPLC
  logP[a]: 4.37

## CCn1c([S+](C)[O-])nn(-c2cc(SCC(F)(F)F)c(C)cc2F)c1=O (centres unmarked) [Example 240]
[1]
  logP[b]: 2.46
Tetranychus urticae
  efficacy: 100%
[2]; HPLC
  logP[a]: 2.53

## Cc1cc(Cl)c(-n2nc(OCC(C)(C)C)n(C3CC3)c2=O)cc1[S+]([O-])CC(F)(F)F (centres unmarked) [Example 404]
[1]
  logP[b]: 3.71
Tetranychus urticae
  efficacy: 100%
[2]; HPLC
  logP[a]: 3.79

## Cc1cc(F)c(-n2nc(C3CC3)n(C)c2=O)cc1[S+]([O-])CC(F)(F)F (racemic) [Example 352]
[1]
  logP[b]: 1.96
Tetranychus urticae
  efficacy: 90%
[2]; HPLC
  logP[a]: 1.99

## CCCOc1nn(-c2ccc(C)c(SCC(F)(F)F)c2)c(=O)n1C1CC1 [Example 123]
[1]
  logP[b]: 4.57
Tetranychus urticae
  efficacy: 100%
[2]; HPLC
  logP[a]: 4.66

## CNn1cnn(-c2cc(SCC(F)(F)F)c(C)cc2F)c1=O [Example 203]
[1]
  logP[b]: 2.27
Tetranychus urticae
  efficacy: 100%
[2]; HPLC
  logP[a]: 2.32

## CCSc1nn(-c2cc(SCC(F)(F)F)c(C)cc2F)c(=O)n1CC [Example 292]
[1]
  logP[b]: 3.86
Tetranychus urticae
  efficacy: 100%
[2]; HPLC
  logP[a]: 3.91

## Cc1cc(F)c(-n2nc(CCOC(C)C)n(C3CC3)c2=O)cc1[S+]([O-])CC(F)(F)F (centres unmarked) [Example 362]
[1]
  logP[b]: 2.61
Tetranychus urticae
  efficacy: 90%
[2]; HPLC
  logP[a]: 2.63

## CCOc1nn(-c2cc([S+]([O-])CC(F)(F)F)c(C)cc2F)c(=O)n1C (centres unmarked) [Example 131]
[1]
  logP[b]: 2.09
Tetranychus urticae
  efficacy: 90%
[2]; HPLC
  logP[a]: 2.13

## CSc1nn(-c2cc(SCC(F)(F)F)c(C)cc2F)c(=O)n1C1CC1 [Example 259]
[1]
  logP[b]: 3.60
Tetranychus urticae
  efficacy: 100%
[2]; HPLC
  logP[a]: 3.56

## Cc1cc(F)c(-n2nc(SC(C)C)n(C)c2=O)cc1[S+]([O-])CC(F)(F)F (centres unmarked) [Example 275]
[1]
  logP[b]: 2.68
Tetranychus urticae
  efficacy: 100%
[2]; HPLC
  logP[a]: 2.73

## Cc1cc(F)c(-n2nc(OCC(C)(C)C)n(C3CC3)c2=O)cc1SCC(F)(F)F [Example 386]
[1]
  logP[b]: 4.71
Tetranychus urticae
  efficacy: 100%
[2]; HPLC
  logP[a]: 4.77

## COc1ccccc1-c1nn(-c2cc(SCC(F)(F)F)c(C)cc2F)c(=O)n1C1CC1 [Example 366]
[1]
  logP[b]: 3.71
Tetranychus urticae
  efficacy: 100%
[2]; HPLC
  logP[a]: 3.77

## Cc1cc(F)c(-n2nc(OC3CCCCC3)n(C)c2=O)cc1[S+]([O-])CC(F)(F)F (centres unmarked) [Example 164]
[1]
  logP[b]: 3.22
Tetranychus urticae
  efficacy: 90%
[2]; HPLC
  logP[a]: 3.29

## Cc1cc(F)c(-n2nc(N(C)C)n(N)c2=O)cc1SCC(F)(F)F [Example 220]
[1]
  logP[b]: 2.48
Tetranychus urticae
  efficacy: 90%
[2]; HPLC
  logP[a]: 2.51

## COCCOC1=CC(=O)N(c2cc([S+]([O-])CC(F)(F)F)c(C)cc2F)C1 (centres unmarked) [Example 335]
[1]
  logP[b]: 1.86
Tetranychus urticae
  efficacy: 90%
[2]; HPLC
  logP[a]: 1.92

## Cc1cc(F)c(-n2nc(C(C)C)n(C3CC3)c2=O)cc1SCC(F)(F)F [Example 44]
[1]
  logP[b]: 3.52
Tetranychus urticae
  efficacy: 100%
[2]; HPLC
  logP[a]: 3.59

## CC[S+]([O-])c1nn(-c2cc(SCC(F)(F)F)c(C)cc2F)c(=O)n1C (centres unmarked) [Example 243, 5-(Ethylsulphinyl)-2-{2-fluoro-4-methyl-5-[(2,2,2-trifluoroethyl)sulphanyl]phenyl}-4-methyl-2,4-dihydro-3H-1,2,4-triazol-3-one]
[1]; neutral range, pH 7.8
  chromatographic logP: 2.51
Tetranychus urticae
  pest or weed control at 500 g/ha: 100%
[2]; [3]
  chromatographic logP: 2.55
[2]; [4]
  chromatographic logP: 2.55

## Cc1cc(C)c(-n2nc(C(F)(F)F)n(C3CC3)c2=O)cc1SCC(F)(F)F [Example 48]
[1]
  logP[b]: 4.09
Tetranychus urticae
  efficacy: 100%
[2]; HPLC
  logP[a]: 4.13

## CCCCc1nn(-c2cc(SCC(F)(F)F)c(C)cc2F)c(=S)n1C1CC1 [Example 495]
[1]
  logP[b]: 4.43
Tetranychus urticae
  efficacy: 100%
[2]; HPLC
  logP[a]: 4.52

## Cc1cc(C)c(-n2ncn(C(C)(C)C)c2=O)cc1SCC(F)(F)F [Example 371]
[1]
  logP[b]: 3.39
Tetranychus urticae
  efficacy: 100%
[2]; HPLC
  logP[a]: 3.46

## Cc1cc(F)c(-n2nc(Br)n(C3CC3)c2=O)cc1SCC(F)(F)F [Example 294]
[1]
  logP[b]: 3.38
Tetranychus urticae
  efficacy: 100%
[2]; HPLC
  logP[a]: 3.48

## Cc1cc(F)c(-n2nc(CC(C)C)n(C3CC3)c2=S)cc1SCC(F)(F)F [Example 493]
[1]
  logP[b]: 4.35
Tetranychus urticae
  efficacy: 100%
[2]; HPLC
  logP[a]: 4.44

## Cc1cc(F)c(-n2nc(C)n(C3CC3)c2=O)cc1[S+]([O-])CC(F)(F)F (centres unmarked) [Example 41]
[1]
  logP[b]: 1.79
Tetranychus urticae
  efficacy: 90%
[2]; HPLC
  logP[a]: 1.85

## CCSc1nn(-c2cc([S+]([O-])CC(F)(F)F)c(C)cc2F)c(=O)n1C1CC1 (centres unmarked) [Example 262]
[1]
  logP[b]: 2.76
Tetranychus urticae
  efficacy: 100%
[2]; HPLC
  logP[a]: 2.81

## Cc1cc(F)c(-n2nc([S+]([O-])CC3CC3)n(C)c2=O)cc1[S+]([O-])CC(F)(F)F (centres unmarked) [Example 248]
[1]
  logP[b]: 1.98
Tetranychus urticae
  efficacy: 100%
[2]; HPLC
  logP[a]: 2.03

## CC1=C(C)C(=O)N(c2cc(SCC(F)(F)F)c(C)cc2C)C1=O [Example 342]
[1]
  logP[b]: 3.70
[1]; neutral range, pH 7.8
  log P[b]: 3.67
Tetranychus urticae
  efficacy: 90%
[2]; HPLC, acidic range, pH 2.7
  log P[a]: 2.07
[2]; HPLC
  logP[a]: 3.73

## Cc1cc(F)c(-n2nc([S+]([O-])CC(F)F)n(C3CC3)c2=O)cc1[S+]([O-])CC(F)(F)F (centres unmarked) [Example 229]
[1]
  logP[b]: 2.07
Tetranychus urticae
  efficacy: 90%
[2]; HPLC
  logP[a]: 2.10

## COC1=CC(=O)N(c2cc(SCC(F)(F)F)c(C)cc2F)C1 [Example 310, 1-{2-Fluoro-4-methyl-5-[(2,2,2-trifluoroethyl)sulphanyl]phenyl}-4-methoxy-1,5-dihydro-2H-pyrrol-2-one]
[1]; neutral range, pH 7.8
  chromatographic logP: 2.81
Tetranychus urticae
  pest or weed control at 500 g/ha: 100%
[2]; [3]
  chromatographic logP: 2.87
[2]; [4]
  chromatographic logP: 2.87

## Cc1cc(F)c(-n2nc(C(F)(F)F)n(C(C)(C)C)c2=O)cc1[S+]([O-])CC(F)(F)F (racemic) [Example 68]
[1]
  logP[b]: 3.49
Tetranychus urticae
  efficacy: 100%
[2]; HPLC
  logP[a]: 3.54

## Cc1cc(F)c(-n2nc(Br)n(Cc3ccccc3)c2=O)cc1SCC(F)(F)F [Example 440]
[1]
  logP[b]: 4.13
Tetranychus urticae
  efficacy: 100%
[2]; HPLC
  logP[a]: 4.18

## Cc1cc(F)c(-n2nc([S+]([O-])CC3CC3)n(C)c2=O)cc1SCC(F)(F)F (centres unmarked) [Example 247]
[1]
  logP[b]: 2.85
Tetranychus urticae
  efficacy: 100%
[2]; HPLC
  logP[a]: 2.94

## CCc1nn(-c2cc([S+]([O-])CC(F)(F)F)c(C)cc2F)c(=O)n1C1CC1 (racemic) [Example 78]
[1]
  logP[b]: 2.15
Tetranychus urticae
  efficacy: 100%
[2]; HPLC
  logP[a]: 2.20

## COCc1nn(-c2cc(SCC(F)(F)F)c(C)cc2F)c(=O)n1C1CC1 [Example 46]
[1]
  logP[b]: 2.90
Tetranychus urticae
  efficacy: 90%
[2]; HPLC
  logP[a]: 2.91

## Cc1cc(F)c(-n2nc(C3CCCCC3)n(C3CC3)c2=S)cc1SCC(F)(F)F [Example 496]
[1]
  logP[b]: 4.88
Tetranychus urticae
  efficacy: 90%
[2]; HPLC
  logP[a]: 5.00
